Data reported in publication PMC12381781, “Structural and functional insights into the selective inhibition of mutant tau aggregation by purpurin and oleocanthal in frontotemporal dementia” (Protein Science : A Publication of the Protein Society, 2025).

Key:
R2R3 (N279K) tau peptide = R2R3 (N279K) tau peptide (Homo sapiens, UniProt P10636, N596K); assay: ThT aggregation assay of monomeric R2R3 (N279K) peptide; format: biochemical; conditions: for ThT-stained aggregates, confocal imaging: R2R3 N279K, end of ThT assay
Procedure: The aggregation kinetics of tau peptides were monitored using a ThT assay. A 40 μL reaction mixture containing 15 μM ThT (Sigma‐Aldrich, Cat. # T3516‐5G) and 50 μM peptide in the absence (control) or presence of 0.1 μM, 1 μM, and 10 μM PUR or OLC was prepared on ice in aggregation buffer (20 mM Tris [pH 7.4], 100 mM NaCl, 1 mM ethylenediaminetetraacetic acid [EDTA]) containing 5 μM heparin (Sigma‐Aldrich, Cat. #H4784). dithiothreitol (DTT) was excluded to avoid its differential effects on the aggregation kinetics of tau peptides containing Cys291 or Cys322 and to prevent peroxide generation by redox‐active compounds like PUR, which can lead to oxidative artifacts and false‐positive inhibition signals, as reported in our previous study (Annadurai, Malina, Salmona, et al., [2022]). This mixture was then dispensed into a clear‐bottom, black 384‐well ViewPlate (Revvity, Waltham, MA, United States; Part # 6007460) and sealed with a TopSealA‐PLUS (Revvity) to prevent evaporation.
Aggregation was monitored using EnSpire Multimode Plate Reader (Revvity) at 37°C with constant agitation (1000 rpm). To minimize condensation, the upper heater temperature was set to 2°C higher than the lower heater temperature. ThT fluorescence (ThT—λ ex: 460–490 nm and λem: 500–550 nm) was recorded every 5–10 min for 48 h.
ThT fluorescence curves were fitted to a sigmoidal function in GraphPad Prism (version 10, San Diego, CA, USA) using the following equation:
Y=Top/1+expV50–X/Slope , where Y is the ThT fluorescence intensity, X is time (h), Top is the maximum fluorescence intensity, V50 is the time to reach 50% of Top, and Slope describes the steepness of the aggregation transition. Baseline fluorescence at the start of the measurements was relatively low across samples and was not separately fitted. In samples showing early increases in fluorescence, the aggregation trajectory was modeled directly without introducing an independent baseline parameter.
The V50 value obtained from each replicate was used as the aggregation t 1/2 for statistical analysis.
To evaluate the effect of compounds on the extent of aggregation, the AUC was calculated for each replicate ThT fluorescence curve using GraphPad Prism. AUC values were then normalized to the mean AUC of the untreated control group and expressed as “aggregation (% of control),” serving as an indirect and comparative measure of fibril formation.
Figure S11. Confocal imaging of ThT-stained aggregates formed in the presence of PUR and OLC (corresponding to Figure 3). At the end of the ThT aggregation assay, reaction mixtures containing WT or mutant R2R3 tau peptides (P301L, V287I, N279K), incubated in the absence (CTL) or presence of 10 µM PUR or OLC, were collected from assay wells, embedded in 0.05% low-melting agarose, and imaged. ThT fluorescence was acquired using a Yokogawa Cell Voyager 7000S high-content imaging system equipped with a 20× objective (Ex: 460–490 nm, Em: 500–550 nm) and analyzed with Signals Image Artist (Revvity). […] Scale bar: 20 μm.

[1] = tested on: preformed R2R3 (N279K) fibrils; assay: Elongation of preformed R2R3 (N279K) fibrils, ThT; format: biochemical; conditions: R2R3 N279K pre-aggregated 24 h, compound 10 μM
Procedure: Peptides were pre‐aggregated for 24 h with aggregation kinetics monitored by ThT fluorescence, after which 10 μM PUR or OLC was added, followed by an additional 24–30 h of incubation (Figure 4a). Aggregation kinetics was monitored by ThT fluorescence, and elongation was quantified as the AUC following compound addition, normalized to each replicate's maximum pre‐treatment fluorescence (Figure 4b). […] WT peptide fibril elongation was reduced to 15.5 ± 2.8% (PUR) and 45.2 ± 3.2% (OLC), and P301L peptide fibril elongation was limited to 31.8 ± 0.6% (PUR) and 85.6 ± 2.2% (OLC) (Figure 4b). Fluorescence microscopy imaging further confirmed the presence of reduced ThT‐positive aggregates following the addition of PUR and OLC (Figure S12). Similar inhibition trends, with PUR outperforming OLC, were also observed for V287I and N279K peptides (Figure S12).
Figure S13. […] (a) ThT fluorescence kinetics of pre-aggregated R2R3 (V287I and N279K ) tau peptides treated with PUR or OLC (10 µM). Peptides were first allowed to aggregate for 24 h, followed by compound addition and continued incubation for an additional 24-30 h. […] Curves are normalized to each replicate’s maximum pre-treatment ThT fluorescence. […] (b) Aggregation levels post-treatment, expressed as a percentage of control (untreated fibrils), calculated from the AUC after compound addition. […]

Sequence of R2R3 (N279K) tau peptide (P10636 592-653 N596K): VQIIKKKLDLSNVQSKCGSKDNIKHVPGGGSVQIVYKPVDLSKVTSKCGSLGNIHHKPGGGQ

Row | Structure (SMILES) | remaining activity at 0.1 µM (R2R3 (N279K) tau peptide; R2R3 N279K 50 μM, compound 0.1 μM, read-out: aggregation (% of control), AUC of ThT fluorescence) [%] | remaining activity at 1 µM (R2R3 (N279K) tau peptide; R2R3 N279K 50 μM, compound 1 μM, read-out: aggregation (% of control), AUC of ThT fluorescence) [%] | ThT-stained aggregates, confocal imaging (R2R3 (N279K) tau peptide; compound 10 μM) | elongation of preformed fibrils [1] | aggregation (% of control), AUC of ThT fluorescence (R2R3 (N279K) tau peptide; R2R3 N279K 50 μM, compound 0.1 μM) [%] | aggregation (% of control), AUC of ThT fluorescence (R2R3 (N279K) tau peptide; R2R3 N279K 50 μM, compound 1 μM) [%] | aggregation, ThT fluorescence (R2R3 (N279K) tau peptide; R2R3 N279K 50 μM, compound 10 μM)
1 | O=C1c2ccccc2C(=O)c2c(O)c(O)cc(O)c21 [PUR, purpurin] | 44 | 19 | marked reduction in ThT signal | inhibit the elongation |  |  | 
2 | C/C=C(/C=O)[C@@H](CC=O)CC(=O)OCCc1ccc(O)cc1 [OLC, oleocanthal] |  |  | marked reduction in ThT signal | inhibit the elongation | 74 | 61 | complete aggregation suppression
